Source: patent US20250041284A1, “TREATMENT OF NEUROLOGICAL DISORDERS” (Praxis Precision Medicines, Inc., priority 2022, published 2025)
Entries after “also recorded” stand apart in the source; their conditions may differ.

Key:
[1] = system: various NaV isoforms and orthologs; test: ATX-II induced persistent INa at NaV isoforms and orthologs; assay type: cell-based; conditions: in words, FIG. 8C
[2] = system: MES-induced seizures in male CD-1 mice; test: Maximal electroshock (MES) induced seizure, latency (Example 3); assay type: in vivo, mouse
Protocol: (§1) Food and water were available ad libitum.
Dosing solutions were prepared on each experiment day. […] VPA was prepared in saline (Vehicle 1). All solutions were protected from light. All compounds and vehicles were dosed at 10 ml/kg.
The MES test was carried out over two days with half of the mice from each treatment group being tested on each day. Mice were brought to the test room at least one hour before the start of the experiment. […] Mice were randomly assigned into one of the six treatment groups.
Animals were p.o. (oral) administered Compound 1 or 35% HPBCD (Vehicle 2) 30 minutes prior to the MES test or i.p. administered VPA or saline (Vehicle 1) 30 minutes prior to the MES test.
A Grass S88x (Grass Technologies of Astro-Med, Inc., West Warwick, RI) Stimulus Isolation Unit (A385, WPI Inc., USA) was set to deliver a 50 mA square-wave stimulus, with a 0.8 second duration, a pulse width of 10 msec, and a frequency of 50 Hz. A pair of custom stainless steel electrodes were soaked in 0.2% Agar, and then the subject received bilateral transauricular stimulation through ear-clip electrodes. During the stimulation, mice were manually restrained. They were then released into the observation cage for convulsion observation for 60 seconds immediately after stimulation. Each mouse was observed continuously by individuals blinded to treatment conditions and results were recorded.
Anti-seizure assessment endpoints were: (1) latency of hindlimb tonic flexion; (2) latency of hindlimb tonic extension; (3) total #hindlimb tonic flexions; (4) total #hindlimb tonic extensions; (5) latency to death; and (6) mortality rate.
Following the experiment, mice were anesthetized with CO2 and terminal plasma and brain tissue samples were collected. […] The supernatant plasma was pipetted into Eppendorf tubes.
An aliquot of 20 μL unknown sample, calibration standard, quality control, dilute quality control, single blank and double blank sample was added to a 1.5 mL tube. […]
From these fitted curves, ED50 and EC50 values were calculated.

in vivo = conditions: rat
[3] = system: spontaneous locomotor activity in male CD-1 mice; test: Spontaneous locomotor activity (sLMA) (Example 4); assay type: in vivo, mouse
Protocol: as §1
(§2) Dosing solutions were prepared on each experiment day. […] All solutions were protected from light. Samples from dosing solutions were stored at 4° C.
(§3) The sLMA test was carried out over two days. Half of the mice from each treatment group was tested on each day.
(§4) Animals were p.o. administered Compound 1 or 35% HPBCD (vehicle) 30 minutes prior to the sLMA test.
(§5) All mice were anesthetized with CO2. […] The supernatant plasma was pipetted into Eppendorf tubes.
(§6) An aliquot of 20 μL unknown sample, calibration standard, quality control, dilute quality control, single blank and double blank sample was added to a 1.5 mL tube. Each sample (except the double blank) was quenched with 300 μL IS solution (double blank sample was quenched with 300 μL ACN), and then the mixture was vortex-mixed well for at least 15 seconds and centrifuged for 15 minutes at 12000 g, 4° C. 65 μL supernatant was transferred to a 96-well plate and centrifuged for 5 minutes at 3220 g, 4° C. Then 3 μL supernatant was directly injected for LC-MS/MS analysis.
(§7) Brain homogenate was prepared by homogenizing brain tissue with 5 volumes (w:v) of cold 15 mM PBS/MeOH (V:V, 2:1). An aliquot of 40 μL unknown sample, calibration standard, quality control, dilute quality control, single blank and double blank sample was added to a 1.5 mL tube. Each sample (except the double blank) was quenched with 600 μL IS solution (double blank sample was quenched with 600 μL ACN), and then the mixture was vortex-mixed well for at least 15 seconds and centrifuged for 15 minutes at 12000 g, 4° C. 65 μL supernatant was transferred to a 96-well plate and centrifuged for 5 minutes at 3220 g, 4° C. Then 3 μL of the supernatant was directly injected for LC-MS/MS analysis.

[4] = Spontaneous locomotor activity (sLMA) (Example 4); assay type: in vivo, mouse; conditions: male, CD-1, mouse, in vivo, po, 30 min post-dose, 30-minute test
Protocol: as §1, §2, §3, §4, §5, §6, §7

CCOC(F)(F)c1nnc2ccc(-c3cnc(OCC(F)(F)F)c(F)c3)cn12 [Compound 1]
inhibition of ATX-II induced persistent INa at multiple NaV isoforms and orthologs [1]: inhibits ATX-II induced persistent INa expressed by multiple NaV isoforms and orthologs
latency to seizures following bilateral transauricular stimulation ([2]; 1 mg/kg p.o.): significantly increased latency to seizures
block of evoked seizures (MES) ([2]; 10 mg/kg): completely blocked evoked seizures
ED50 ([2]; Mus musculus, po, 30 min before MES, latency to seizures): 0.67 mg/kg
AUC(0-inf) (in vivo): 7500 ng·h/mL
total traveling distance in the 30-minute sLMA test ([3]; 10 and 20 mg/kg p.o.): significantly reduced total traveling distance; also recorded: significantly reduced locomotor activity
sLMA TD50 ([3]; p.o., 30 min post-dose, 30-minute test): 10.27 mg/kg
sLMA plasma TC50 ([3]; plasma concentration): 1123 ng/g
TD50 [4]: 10.3 mg/kg
